According to ChEMBL document CHEMBL3421552, “Penicitols A-C and penixanacid A from the mangrove-derived Penicillium chrysogenum HDN11-24” (J Nat Prod, 2015):

Assays:
HeLa = assay: Cytotoxic activity against human HeLa cells by MTT method; assay type: functional, cell-based
[1] = Cytotoxic activity against human Bel7402 cells by MTT method; conditions: Bel-7402
[2] = Cytotoxic activity against human HCT116 cells by SRB method; assay type: functional, cell-based; conditions: HCT-116
HEK293 = assay: Cytotoxic activity against human HEK293 cells by SRB method; assay type: cell-based
A549 = assay: Cytotoxic activity against human A549 cells by SRB method

Row | Structure (SMILES) | IC50 (HeLa) | IC50 [1] | IC50 [2] | IC50 (HEK293) | IC50 (A549)
1 | CO[C@]12CCCC[C@H]1[C@H]1O[C@H](C)[C@@H](C)c3c(O)c(O)cc(c31)O2 | 4.6 µM | 10.5 µM | 5.6 µM | 6.7 µM | 7.6 µM
2 | Cc1c(O)c(O)c(Oc2cc(O)c(C)c3c2C(=O)O[C@H](C)[C@H]3C)c2c1[C@H](C)[C@@H](C)O2 | 3.4 µM | 7 µM | 3.5 µM | 6.4 µM | 9.6 µM
3 | CO[C@H]1CCc2oc(=O)c3c(O)cc(C)cc3c21 | 12.6 µM | 40.5 µM | 22.5 µM | 31.4 µM | 10.8 µM
4 | COC(=O)c1ccc2c(=O)c3cc(O)cc(C(=O)O)c3oc2c1O | 10 µM | 30.6 µM | 19 µM | 28.5 µM | 16.9 µM
5 | CO[C@@]1(C)C[C@H]2O[C@H](C)[C@@H](C)c3c(C)c(O)cc(c32)O1 | 35.5 µM | > 50 µM | > 50 µM | 42.5 µM | > 50 µM
6 | CO[C@]1(C)C[C@H]2O[C@H](C)[C@@H](C)c3c(C)c(O)cc(c32)O1 | 45 µM | 46.6 µM | > 50 µM | 32.6 µM | > 50 µM
7 | COc1cccc2c1C(=O)c1c(O)c3c(c(O)c1C2=O)C[C@@](O)(C(=O)CO)C[C@@H]3O[C@H]1C[C@H](N)[C@H](O)[C@H](C)O1 [DOXORUBICIN] | 0.5 µM | – | 0.2 µM | 0.04 µM | –
